Paper PMC3876047, “Self/Co-Assembling Peptide, EAR8-II, as a Potential Carrier for a Hydrophobic Anticancer Drug Pirarubicin (THP)—Characterization and in-Vitro Delivery” (International Journal of Molecular Sciences, 2013)

Key:
[1] = Solubilisation of THP in water and EAR8-II solution (appearance); type: physicochemical; conditions: visual appearance
Description: To determine a suitable concentration of required EAR8-II for THP encapsulation, different concentrations of EAR8-II, in a range of 0.05–1.0 mg/mL, were prepared and combined with THP at 0.1 mg/mL concentration in aqueous solution. Solubility of THP in water is very low, whereas it can be dissolved and stabilized in an EAR8-II solution at a minimum concentration of 0.2 mg/mL. […] However, at higher EAR8-II concentrations (0.2–0.6 mg/mL), THP molecules were fully dissolved, and consequently, a clear-transparent solution of the peptide-drug complexes formed. At much higher peptide concentrations (above 0.6 mg/mL), THP molecules were still fully soluble, but the excess amount of EAR8-II produced a cloudier solution, with clearly a higher particle size distribution. Note that amphiphilic features of EAR8-II, including the ionic and hydrophobic residues, stimulated binding with hydrophobic molecules of THP through protonation of NH2 to NH3^+ in THP molecules and hydrophobic interactions between alanine residues and aromatic rings in the THP structure. […] Both ionic and hydrophobic interactions are the possible main interactions of EAR8-II and THP, i.e., the protonation of THP in an acidic EAR8-II solution and hydrophobic interaction between THP and hydrophobic side chains of EAR8-II are the dominant forces in complexation of EAR8-II-THP. […]

[2] = tested on: A549 cells; assay: Cellular toxicity, CCK-8 assay, A549; type: cell-based, Human; conditions: 24 h
Description: (§1) All cell lines, purchased from Cedarlane (Burlington, ON, Canada), were used in the current study and cultured in their respective culture medium as follows: Human Cervical Adenocarcinoma: HeLa (CCL-2) in Eagle's Minimum Essential Medium (EMEM) (ATCC30-2003), Human lung cancer: A549 (CCL-185) in F-12 medium (ATCC30-2004). All medium solutions were prepared with 10% fetal bovine serum (FBS-[…]). Two human cancer cell lines, with 10^4 cells per well concentrations, were seeded in 96-well plates, followed by treatment with different peptide-drug complex ratios for 24 h. Cellular-toxicity experiments were performed with sensitive colorimetric assay called Cell counting kit-8 (CCK-8) (Dojindo Molecular Technologies, Inc. Burlington, ON, Canada). CCK-8 contains highly water-soluble tetrazolium salt (WST-8), which is reduced by dehydrogenase activities in cells to give the yellow color of the formazan dye, which is soluble in culture media. The amount of formazan dye is measured by absorption (O.D.) at 450 nm, which is directly proportional to the number of living cells.

[3] = tested on: HeLa cells; assay: Cellular toxicity, CCK-8 assay, HeLa; type: cell-based, Human; conditions: 24 h
Description: as §1

[4] = Dynamic light scattering, particle size of peptide and peptide-drug complexes; type: physicochemical; conditions: DLS, intensity-based, aqueous solution, EAR8-II 0.5 mg/mL, 25 °C, no drug
Description: EAR8-II peptide solutions in the concentration range of 0.05–2 mg/mL (0.0547–2.188 mM) were prepared by dissolving peptide lyophilized powder in Milli-Q (18.2 MΩ) water (EMD Millipore, Billerica, MA, USA) followed by bath sonicating for 10 min. Freshly prepared peptide solutions were added to THP to reach fixed [THP] concentrations at 0.1 mg/mL (0.159 mM), followed by mechanical stirring at 900 rpm for 24 h.
The particle size distribution and zeta potential of peptide-drug complexes at different peptide-to-drug ratios were measured by a Zetasizer Nano ZS (Malvern Instruments, Worcestershire, UK). Appropriate settings, viscosity, refractive index, and dispersant solvent were set for each measurement at 25 °C. A small 50 μL volume of the sample was transferred from the vial to a disposable solvent resistant micro cuvette (ZEN0040, Malvern, Worcestershire, UK). The scattered light intensities of the samples were collected at an angle of 173°. This was known as backscatter detection, i.e., the relationship between the size of a particle and its scattered light intensity obtained with the multimodal Contin algorithm, which was provided in the Dispersion Technology Software 5.1 package (Malvern Instruments, Worcestershire, UK).

[5] = Tapping mode atomic force microscopy of nanostructure; type: physicochemical; conditions: tapping mode AFM, EAR8-II 0.5 mg/mL
Description: Figure 2. Nanostructure of (A) EAR8-II and (C) EAR8-II-THP complex by tapping mode atomic force microscopy; Intensity-based particle size distribution of (B) EAR8-II and (D) EAR8-II-THP complex in aqueous solution by dynamic light scattering. EAR8-II concentration is 0.5 mg/mL, and THP concentration is 0.1 mg/mL.

[6] = Steady-state THP fluorescence, encapsulation of THP by EAR8-II; type: physicochemical; conditions: [THP] = 0.1 mg/mL, fluorescence excitation 480 nm / emission 590 nm, plateau of intensity
Description: The amount of protonated THP in EAR8-II is also determined by measuring the fluorescence intensity of the excitation and emission by THP at different EAR8-II concentrations. Protonated THP absorbs light at 480 nm, and emits light at 590–600 nm. Fluorescence intensity for both the excitation and emission spectra is proportional to the concentration of protonated THP stabilized in the peptide solution. Although the initial concentration of THP was constant in each complex, the amount of protonated THP varied due to the dependency of the THP encapsulation efficiency on peptide concentration.
The THP fluorescence emission spectra were acquired on a photon technology international spectrafluorometer (Type QM4-SE, London, ON, Canada) with a continuous xenon lamp as the light source. The emission spectra were collected in the wavelength range of 500–800 nm, while samples were excited at 480 nm. The maximum emission peak of THP is at a wavelength of 590–600 nm. […] The fluorescence intensity at 590 and 480 nm for emission and excitation were obtained by taking the average of twenty points of fluorescence intensity, respectively. Each fluorescence spectrum was divided by lamp intensity to account for eventual lamp fluctuations. The normalized fluorescence intensity for both emission and excitation spectra at 590 and 480 nm was plotted for various peptide-to-drug ratios.

Row | hydrodynamic diameter of aggregates [4] | minimum EAR8-II concentration at which THP is dissolved and stabilized ([1]; aqueous solution, [THP] = 0.1 mg/mL, stirring at 900 rpm 24 h) [mg/mL] | average height of self-assembled fibres [5] [nm] | average width of self-assembled fibres [5] [nm] | minimum concentration of peptide required to fully encapsulate THP [6] | Compound | solubility of THP in water ([1]; water, no peptide, THP 0.1 mg/mL, stirring 24 h) | cellular viability ([2]; A549, THP at 38 μM in water, no peptide) [%] | cellular toxicity in absence of peptide ([2]; A549, THP control without peptide) | cellular viability ([3]; THP at 38 μM in water, no peptide) [%] | cellular toxicity in absence of peptide ([3]; THP control without peptide)
1 | – | – | – | – | – | COc1cccc2c1C(=O)c1c(O)c3c(c(O)c1C2=O)C[C@@](O)(C(=O)CO)C[C@@H]3O[C@H]1C[C@H](N)[C@H](O[C@@H]2CCCCO2)[C@H](C)O1 [THP, 4-O-tetrahydropyranyladriamycin] | very low | 64.9 ± 6.4 | non-significant cellular toxicity | 29.58 ± 3.69 | non-significant cellular toxicity
2 | ~ 500 nm | 0.2 | 15 | 10 | ~ 0.5 mg/mL | Ac-AEAEARAR-NH2 [EAR8-II, Ac-AEAEARAR-NH2] | – | – | – | – | –
